What was measured:
Assay type in all cases: biochemical
Settings in all cases: recombinant enzyme, 20° C., activity level classes
[1] = molecular target: T1, hALDH1a3 (Homo sapiens, UniProt P47895); assay: Aldh1a3 enzyme inhibition assay (resorufin fluorescence), human enzyme
T1 construct: made in house; host or cells: E. coli BL21-DE3
T1 sequence (P47895 1-512): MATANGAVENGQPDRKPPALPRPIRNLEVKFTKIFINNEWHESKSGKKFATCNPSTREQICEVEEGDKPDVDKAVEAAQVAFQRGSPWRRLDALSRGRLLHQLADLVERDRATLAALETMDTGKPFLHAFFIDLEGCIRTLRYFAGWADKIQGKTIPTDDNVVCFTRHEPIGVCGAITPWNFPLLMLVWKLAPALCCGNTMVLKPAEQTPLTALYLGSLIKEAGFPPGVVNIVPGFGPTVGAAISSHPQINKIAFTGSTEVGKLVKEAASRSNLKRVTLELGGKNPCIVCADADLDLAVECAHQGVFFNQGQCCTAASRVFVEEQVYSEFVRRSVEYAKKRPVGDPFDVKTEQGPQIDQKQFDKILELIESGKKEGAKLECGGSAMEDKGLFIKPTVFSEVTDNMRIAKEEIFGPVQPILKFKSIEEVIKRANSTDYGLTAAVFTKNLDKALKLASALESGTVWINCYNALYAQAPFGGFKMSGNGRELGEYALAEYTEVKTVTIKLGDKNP

[2] = molecular target: T2, mALDH1a3 (Mus musculus, UniProt Q9JHW9); assay: Aldh1a3 enzyme inhibition assay (resorufin fluorescence), mouse enzyme
T2 construct: made in house; host or cells: E. coli BL21-DE3
T2 sequence (Q9JHW9 1-512): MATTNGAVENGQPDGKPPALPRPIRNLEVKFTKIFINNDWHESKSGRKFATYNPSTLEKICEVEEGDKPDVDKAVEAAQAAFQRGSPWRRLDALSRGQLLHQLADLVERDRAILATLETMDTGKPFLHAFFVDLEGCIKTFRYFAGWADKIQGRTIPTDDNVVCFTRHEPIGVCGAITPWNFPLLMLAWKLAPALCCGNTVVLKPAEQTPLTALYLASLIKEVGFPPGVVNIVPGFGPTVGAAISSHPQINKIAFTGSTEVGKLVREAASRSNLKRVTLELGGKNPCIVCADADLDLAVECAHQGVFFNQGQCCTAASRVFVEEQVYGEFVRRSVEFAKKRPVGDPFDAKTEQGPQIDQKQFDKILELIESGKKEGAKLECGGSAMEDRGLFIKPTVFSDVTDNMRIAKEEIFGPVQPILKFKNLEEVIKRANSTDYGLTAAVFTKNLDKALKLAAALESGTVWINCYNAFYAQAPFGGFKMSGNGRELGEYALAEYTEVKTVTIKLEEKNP
Source text: Recombinant enzyme and inhibitor added immediately before assay. Reaction rate measured by resorufin fluorescence.

[3] = molecular target: T3, hALDH1a2 (Homo sapiens, UniProt O94788); assay: Aldh1a2 enzyme inhibition assay (resorufin fluorescence), human enzyme
T3 construct: made in house; host or cells: E. coli BL21-DE3
T3 sequence (O94788 1-518): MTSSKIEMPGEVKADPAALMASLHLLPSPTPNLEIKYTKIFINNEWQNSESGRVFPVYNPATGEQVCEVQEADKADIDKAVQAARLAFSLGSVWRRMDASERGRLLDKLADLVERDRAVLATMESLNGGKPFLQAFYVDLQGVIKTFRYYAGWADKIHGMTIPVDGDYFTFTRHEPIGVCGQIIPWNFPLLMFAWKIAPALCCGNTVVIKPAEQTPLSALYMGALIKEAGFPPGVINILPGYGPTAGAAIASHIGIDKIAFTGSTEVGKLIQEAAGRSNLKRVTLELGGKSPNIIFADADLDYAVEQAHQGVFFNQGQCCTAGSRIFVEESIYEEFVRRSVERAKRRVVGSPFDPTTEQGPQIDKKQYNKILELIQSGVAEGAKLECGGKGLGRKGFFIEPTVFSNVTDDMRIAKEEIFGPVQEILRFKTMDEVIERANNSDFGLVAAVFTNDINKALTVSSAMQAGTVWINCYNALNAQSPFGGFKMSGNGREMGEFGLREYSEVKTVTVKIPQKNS
Source text: (§1) Recombinant enzyme and inhibitor added immediately before assay. Reaction rate measured by resorufln fluorescence.

[4] = molecular target: T4, mALDH1a2 (Mus musculus, UniProt Q62148); assay: Aldh1a2 enzyme inhibition assay (resorufin fluorescence), mouse enzyme
T4 construct: made in house; host or cells: E. coli BL21-DE3
T4 sequence (Q62148 1-518): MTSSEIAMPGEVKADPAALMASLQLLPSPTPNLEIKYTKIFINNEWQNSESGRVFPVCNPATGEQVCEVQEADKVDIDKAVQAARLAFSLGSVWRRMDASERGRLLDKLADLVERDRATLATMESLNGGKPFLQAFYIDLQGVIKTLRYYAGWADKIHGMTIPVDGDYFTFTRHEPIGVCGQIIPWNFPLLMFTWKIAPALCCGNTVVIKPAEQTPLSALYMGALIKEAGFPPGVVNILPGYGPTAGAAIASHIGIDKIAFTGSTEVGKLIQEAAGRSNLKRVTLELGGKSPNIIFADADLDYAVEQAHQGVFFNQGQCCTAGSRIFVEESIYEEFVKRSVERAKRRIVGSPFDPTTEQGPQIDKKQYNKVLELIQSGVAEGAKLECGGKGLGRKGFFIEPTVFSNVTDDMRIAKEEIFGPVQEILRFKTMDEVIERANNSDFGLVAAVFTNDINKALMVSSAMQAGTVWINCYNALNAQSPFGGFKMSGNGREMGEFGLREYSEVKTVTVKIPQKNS
Source text: as §1

Compound	IC50 [1]	IC50 [2]	IC50 [3]	IC50 [4]	mAldh1a3 IC50 [2]
O=C1CCc2cc(NC(=O)c3ccncc3-c3ccccc3)cc(Cl)c2N1 [Compound 20]	1000 to 5000 nM	1000 to 5000 nM	< 100 nM	100 to 250 nM	
O=C1CCc2cc(NC(=O)c3ccncc3-c3ccccc3)ccc2N1 [Compound 21]	> 5000 nM		1000 to 5000 nM	1000 to 5000 nM	No activity
O=C1CCc2cc(NC(=O)c3ccccc3-c3cccc(F)c3)ccc2N1 [Compound 22]	> 5000 nM		> 5000 nM	> 5000 nM	No activity
Cc1cc(NC(=O)c2ccccc2-c2cccc(F)c2)cc2c1NC(=O)CC2 [Compound 23]	> 5000 nM	> 5000 nM	1000 to 5000 nM	1000 to 5000 nM	
O=C1CCc2cc(NC(=O)c3ccccc3-c3cccc(F)c3)cc(Cl)c2N1 [Compound 24]	1000 to 5000 nM	> 5000 nM	100 to 250 nM	250 to 1000 nM	
O=C1CCc2cc(NC(=O)c3ccncc3-c3ccccc3F)ccc2N1 [Compound 25]	> 5000 nM		1000 to 5000 nM	1000 to 5000 nM	No activity
O=C1CCc2cc(NC(=O)c3ccncc3-c3ccccc3F)cc(Cl)c2N1 [Compound 26]	1000 to 5000 nM		100 to 250 nM	100 to 250 nM	No activity
Cc1cc(NC(=O)c2ccncc2CC2(C)CC2)cc2c1NC(=O)CC2 [Compound 27]	< 100 nM	250 to 1000 nM	100 to 250 nM	100 to 250 nM	
Cc1cc(NC(=O)c2ccncc2CC(F)(F)F)cc2c1NC(=O)CS2(=O)=O [Compound 28]	> 5000 nM	1000 to 5000 nM	> 5000 nM	> 5000 nM	
Cc1cc(NC(=O)c2scnc2CC(F)(F)F)cc2c1NC(=O)CC2 [Compound 31]	100 to 250 nM	< 100 nM	250 to 1000 nM	250 to 1000 nM	
CCc1ncsc1C(=O)Nc1cc(C)c2c(c1)CCC(=O)N2 [Compound 32]	100 to 250 nM	< 100 nM	250 to 1000 nM	250 to 1000 nM	
Cc1cc(NC(=O)c2scnc2CC(F)(F)F)cc2c1NC(=O)C1CC21 (stereo not shown) [Compound 33]	100 to 250 nM	< 100 nM	< 100 nM	< 100 nM	
CCc1ncsc1C(=O)Nc1cc(C)c2c(c1)C1CC1C(=O)N2 (stereo not shown) [Compound 34]	< 100 nM	< 100 nM	< 100 nM	< 100 nM	
O=C1CCc2cc(NC(=O)c3scnc3CC(F)(F)F)cc(Cl)c2N1 [Compound 35]	100 to 250 nM	< 100 nM	250 to 1000 nM	250 to 1000 nM	
CCc1ncsc1C(=O)Nc1cc(Cl)c2c(c1)CCC(=O)N2 [Compound 36]	100 to 250 nM	< 100 nM	250 to 1000 nM	250 to 1000 nM	
O=C(Nc1cc(Cl)c2c(c1)C1CC1C(=O)N2)c1scnc1CC(F)(F)F (stereo not shown) [Compound 37]	100 to 250 nM	< 100 nM	100 to 250 nM	100 to 250 nM	
CCc1ncsc1C(=O)Nc1cc(Cl)c2c(c1)C1CC1C(=O)N2 (stereo not shown) [Compound 38]	100 to 250 nM	< 100 nM	100 to 250 nM	100 to 250 nM	
CCc1scnc1C(=O)Nc1cc(C)c2c(c1)C1CC1C(=O)N2 (stereo not shown) [Compound 39]	250 to 1000 nM	250 to 1000 nM	250 to 1000 nM	250 to 1000 nM	
Cc1cc(NC(=O)c2ncsc2CC(F)(F)F)cc2c1NC(=O)C1CC21 (stereo not shown) [Compound 40]	< 100 nM	< 100 nM	< 100 nM	< 100 nM	
CCc1cnsc1C(=O)Nc1cc(C)c2c(c1)C1CC1C(=O)N2 (stereo not shown) [Compound 41]	< 100 nM	< 100 nM	< 100 nM	< 100 nM	
O=C(Nc1cc(Cl)c2c(c1)C1CC1C(=O)N2)c1scnc1CC(F)(F)F (stereo not shown) [Compound 42]	100 to 250 nM	< 100 nM	250 to 1000 nM	1000 to 5000 nM	
CCc1ncsc1C(=O)Nc1cc(Cl)c2c(c1)C1CC1C(=O)N2 (stereo not shown) [Compound 43]	100 to 250 nM	< 100 nM	1000 to 5000 nM	1000 to 5000 nM	
CCc1scnc1C(=O)Nc1cc(Cl)c2c(c1)CCC(=O)N2 [Compound 44]	1000 to 5000 nM	100 to 250 nM	1000 to 5000 nM	1000 to 5000 nM	
CCc1scnc1C(=O)Nc1cc2c(c(C3CC3)c1)NC(=O)CC2 [Compound 45]	1000 to 5000 nM	100 to 250 nM	250 to 1000 nM	250 to 1000 nM	
CCc1csnc1C(=O)Nc1cc(C)c2c(c1)C1CC1C(=O)N2 (stereo not shown) [Compound 46]	100 to 250 nM	< 100 nM	100 to 250 nM	100 to 250 nM	
CCc1cnsc1C(=O)Nc1cc(C)c2c(c1)CCC(=O)N2 [Compound 48]	100 to 250 nM	< 100 nM	100 to 250 nM	100 to 250 nM	
Cc1cc(NC(=O)c2cnsc2CC(F)(F)F)cc2c1NC(=O)CC2 [Compound 49]	< 100 nM	< 100 nM	< 100 nM	100 to 250 nM	
CCc1sncc1C(=O)Nc1cc(C)c2c(c1)CCC(=O)N2 [Compound 50]	250 to 1000 nM	< 100 nM	250 to 1000 nM	250 to 1000 nM	

Source: patent US20260151383A1, “HETEROCYCLIC COMPOUNDS AND USES THEREOF” (KayoThera Inc., priority 2022, published 2026)
